Where two headings read alike, the source gives them in different places.
Test system: MV4:11 human cancer cell lines
Experiment: Cellular viability / anti-proliferative activity, CellTiter-Glo, 5 day protocol
Assay type: cell-based
Details: MV4:11 cells, 5 day incubation, CellTiter-Glo, mean of minimum two replicates, read-out: GI50 on cellular proliferation of MV4:11 human cancer cell lines
Outline: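 Cells seeded at 200 per well (7200 cells/mL) with compound in 2-fold serial dilutions from 30 μM top (22 points), 0.3% DMSO final. Viability read by CellTiter-Glo luminescence after 5 days; GI50 from sigmoidal dose-response fit, mean of at least two replicates.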

For `CCn1cc(CN2CCc3c(cc(Cn4ccnc4C)cc3-c3cn(C)nc3C(F)(F)F)C2=O)c2ccccc21` [Example 187, 2-((1-Ethyl-1H-indol-3-yl)methyl)-7-((2-methyl-1H-imidazol-1-yl)methyl)-5-(1-methyl-3-(trifluoromethyl)-1H-pyrazol-4-yl)-3,4-dihydroisoquinolin-1(2H)-one], the GI50 (Homo sapiens, MV4-11, 120 h) was 591 nM.

`Cc1nnc(CN2CCc3c(cc(Cn4ccnc4C)cc3-c3cn(C)nc3C(F)(F)F)C2=O)o1` [Example 188, 2-((5-Methyl-1,3,4-oxadiazol-2-yl)methyl)-7-((2-methyl-1H-imidazol-1-yl)methyl)-5-(1-methyl-3-(trifluoromethyl)-1H-pyrazol-4-yl)-3,4-dihydroisoquinolin-1(2H)-one] gave a GI50 (Homo sapiens, MV4-11, 120 h) of 730 nM.

`Cc1nccn1Cc1cc2c(c(-c3cn(C)nc3C(F)(F)F)c1)CCN(Cc1cn(C)c3ccccc13)C2=O` [Example 189, 7-((2-Methyl-1H-imidazol-1-yl)methyl)-2-((1-methyl-1H-indol-3-yl)methyl)-5-(1-methyl-3-(trifluoromethyl)-1H-pyrazol-4-yl)-3,4-dihydroisoquinolin-1(2H)-one] was tested, and the GI50 (Homo sapiens, MV4-11, 120 h) was 1000 nM.

`Cc1cc(CN2CCc3c(cc(Cn4ccnc4C)cc3-c3cn(C)nc3C(F)(F)F)C2=O)on1` [Example 190, 7-((2-Methyl-1H-imidazol-1-yl)methyl)-5-(1-methyl-3-(trifluoromethyl)-1H-pyrazol-4-yl)-2-((3-methylisoxazol-5-yl)methyl)-3,4-dihydroisoquinolin-1(2H)-one] showed a GI50 (Homo sapiens, MV4-11, 120 h) of 349 nM.

With `CCc1ccnc([C@H](C)N2CCc3c(cc(Cn4ccnc4)cc3-c3cn(C)nc3C(F)(F)F)C2=O)c1` [Example 191, (S)-7-((1H-Imidazol-1-yl)methyl)-2-(1-(4-ethylpyridin-2-yl)ethyl)-5-(1-methyl-3-(trifluoromethyl)-1H-pyrazol-4-yl)-3,4-dihydroisoquinolin-1(2H)-one] the GI50 (Homo sapiens, MV4-11, 120 h) was < 50 nM.

Molecule `COc1ccnc([C@H](C)N2CCc3c(cc(Cn4ccnc4C)cc3-c3cccnc3C(F)(F)F)C2=O)c1` [Example 192, (S)-2-(1-(4-Methoxypyridin-2-yl)ethyl)-7-((2-methyl-1H-imidazol-1-yl)methyl)-5-(2-(trifluoromethyl)pyridin-3-yl)-3,4-dihydroisoquinolin-1(2H)-one] has a GI50 (Homo sapiens, MV4-11, 120 h) of 77 nM.

Molecule `Cc1nccn1Cc1cc2c(c(-c3cn(C)nc3C(F)(F)F)c1)CCN(Cc1cn(C(C)C)c3ccccc13)C2=O` [Example 193, 2-((1-Isopropyl-1H-indol-3-yl)methyl)-7-((2-methyl-1H-imidazol-1-yl)methyl)-5-(1-methyl-3-(trifluoromethyl)-1H-pyrazol-4-yl)-3,4-dihydroisoquinolin-1(2H)-one] has a GI50 (Homo sapiens, MV4-11, 120 h) of 2330 nM.

With `Cc1cnc(CN2CCc3c(cc(Cn4ccnc4C)cc3-c3cn(C)nc3C(F)(F)F)C2=O)o1` [Example 194, 7-((2-Methyl-1H-imidazol-1-yl)methyl)-5-(1-methyl-3-(trifluoromethyl)-1H-pyrazol-4-yl)-2-((5-methyloxazol-2-yl)methyl)-3,4-dihydroisoquinolin-1(2H)-one] the GI50 (Homo sapiens, MV4-11, 120 h) was 252 nM.

For `Cc1cnc(CN2CCc3c(cc(Cn4ccnc4C)cc3-c3cn(C)nc3C(F)(F)F)C2=O)s1` [Example 195, 7-((2-Methyl-1H-imidazol-1-yl)methyl)-5-(1-methyl-3-(trifluoromethyl)-1H-pyrazol-4-yl)-2-((5-methylthiazol-2-yl)methyl)-3,4-dihydroisoquinolin-1(2H)-one], the GI50 (Homo sapiens, MV4-11, 120 h) was 217 nM.

`COc1ccnc([C@H](C)N2CCc3c(cc(Cn4ccnc4C)cc3-c3cnccc3C)C2=O)c1` [Example 196, (S)-2-(1-(4-Methoxypyridin-2-yl)ethyl)-7-((2-methyl-1H-imidazol-1-yl)methyl)-5-(4-methylpyridin-3-yl)-3,4-dihydroisoquinolin-1(2H)-one] showed a GI50 (Homo sapiens, MV4-11, 120 h) of 936 nM.

For `Cc1cncc([C@@H](C)N2CCc3c(cc(Cn4ccnc4C)cc3-c3cn(C)nc3C(F)(F)F)C2=O)c1` [Example 197, (R)-7-((2-Methyl-1H-imidazol-1-yl)methyl)-5-(1-methyl-3-(trifluoromethyl)-1H-pyrazol-4-yl)-2-(1-(5-methylpyridin-3-yl)ethyl)-3,4-dihydroisoquinolin-1(2H)-one], the GI50 (Homo sapiens, MV4-11, 120 h) was < 50 nM.

`CC[C@H](c1cncc(C)c1)N1CCc2c(cc(Cn3ccnc3C)cc2-c2cn(C)nc2C(F)(F)F)C1=O` [Example 198, (R)-7-((2-Methyl-1H-imidazol-1-yl)methyl)-5-(1-methyl-3-(trifluoromethyl)-1H-pyrazol-4-yl)-2-(1-(5-methylpyridin-3-yl)propyl)-3,4-dihydroisoquinolin-1(2H)-one] gave a GI50 (Homo sapiens, MV4-11, 120 h) of 62 nM.

In the case of `CC[C@@H](c1cncc(C)c1)N1CCc2c(cc(Cn3ccnc3C)cc2-c2cn(C)nc2C(F)(F)F)C1=O` [Example 199, (S)-7-((2-Methyl-1H-imidazol-1-yl)methyl)-5-(1-methyl-3-(trifluoromethyl)-1H-pyrazol-4-yl)-2-(1-(5-methylpyridin-3-yl)propyl)-3,4-dihydroisoquinolin-1(2H)-one], the GI50 (Homo sapiens, MV4-11, 120 h) is reported as < 50 nM.

In the case of `Cc1cncc([C@H](C)N2CCc3c(cc(Cn4ccnc4C)cc3-c3cn(C)nc3C(F)(F)F)C2=O)c1` [Example 200, (S)-7-((2-Methyl-1H-imidazol-1-yl)methyl)-5-(1-methyl-3-(trifluoromethyl)-1H-pyrazol-4-yl)-2-(1-(5-methylpyridin-3-yl)ethyl)-3,4-dihydroisoquinolin-1(2H)-one], the GI50 (Homo sapiens, MV4-11, 120 h) is reported as < 50 nM.

With `Cc1cc([C@H](C)N2CCc3c(cc(Cn4ccnc4)cc3-c3cn(C)nc3C(F)(F)F)C2=O)ncc1F` [Example 201, (S)-7-((1H-imidazol-1-yl)methyl)-2-(1-(5-fluoro-4-methylpyridin-2-yl)ethyl)-5-(1-methyl-3-(trifluoromethyl)-1H-pyrazol-4-yl)-3,4-dihydroisoquinolin-1(2H)-one] the GI50 was < 50 nM.

`COc1ccnc([C@H](C)N2CCc3c(cc(Cn4ccnc4C)cc3-c3cccnc3C)C2=O)c1` [Example 202, (S)-2-(1-(4-Methoxypyridin-2-yl)ethyl)-7-((2-methyl-1H-imidazol-1-yl)methyl)-5-(2-methylpyridin-3-yl)-3,4-dihydroisoquinolin-1(2H)-one] was tested, and the GI50 (Homo sapiens, MV4-11, 120 h) was 230 nM.

`COc1ccnc([C@H](C2CC2)N2CCc3c(cc(Cn4ccnc4C)cc3-c3cn(C)nc3C)C2=O)c1` [Example 203, (S)-2-(Cyclopropyl(4-methoxypyridin-2-yl)methyl)-5-(1,3-dimethyl-1H-pyrazol-4-yl)-7-((2-methyl-1H-imidazol-1-yl)methyl)-3,4-dihydroisoquinolin-1(2H)-one] was tested, and the GI50 (Homo sapiens, MV4-11, 120 h) was 52 nM.

For `Cc1nccn1Cc1cc2c(c(-c3cn(C)nc3C(F)(F)F)c1)CCN(Cc1cc(Br)c3ccccc3n1)C2=O` [Example 204, 2-((4-Bromoquinolin-2-yl)methyl)-7-((2-methyl-1H-imidazol-1-yl)methyl)-5-(1-methyl-3-(trifluoromethyl)-1H-pyrazol-4-yl)-3,4-dihydroisoquinolin-1(2H)-one], the GI50 (Homo sapiens, MV4-11, 120 h) was 58 nM.

With `Cc1nccn1Cc1cc2c(c(-c3cn(C)nc3C(F)(F)F)c1)CCN(Cc1cc(Br)ccn1)C2=O` [Example 205, 2-((4-Bromopyridin-2-yl)methyl)-7-((2-methyl-1H-imidazol-1-yl)methyl)-5-(1-methyl-3-(trifluoromethyl)-1H-pyrazol-4-yl)-3,4-dihydroisoquinolin-1(2H)-one] the GI50 (Homo sapiens, MV4-11, 120 h) was < 50 nM.

In the case of `CCn1cc(-c2cc(Cn3ccnc3C)cc3c2CCN([C@H](c2cc(OC)ccn2)C2CC2)C3=O)c(C(F)(F)F)n1` [Example 206, (S)-2-(cyclopropyl(4-methoxypyridin-2-yl)methyl)-5-(1-ethyl-3-(trifluoromethyl)-1H-pyrazol-4-yl)-7-((2-methyl-1H-imidazol-1-yl)methyl)-3,4-dihydroisoquinolin-1(2H)-one], the GI50 (Homo sapiens, MV4-11, 120 h) is reported as < 50 nM.

`Cc1nccn1Cc1cc2c(c(-c3cn(C)nc3C(F)(F)F)c1)CCN(Cc1cccc(Br)c1)C2=O` [Example 207, 2-(3-Bromobenzyl)-7-((2-methyl-1H-imidazol-1-yl)methyl)-5-(1-methyl-3-(trifluoromethyl)-1H-pyrazol-4-yl)-3,4-dihydroisoquinolin-1(2H)-one] gave a GI50 (Homo sapiens, MV4-11, 120 h) of 75 nM.

`Cc1cc(CN2CCc3c(cc(Cn4ccnc4C)cc3-c3cn(C)nc3C(F)(F)F)C2=O)ccn1` [Example 208, 7-((2-Methyl-1H-imidazol-1-yl)methyl)-5-(1-methyl-3-(trifluoromethyl)-1H-pyrazol-4-yl)-2-((2-methylpyridin-4-yl)methyl)-3,4-dihydroisoquinolin-1(2H)-one] was tested, and the GI50 (Homo sapiens, MV4-11, 120 h) was 251 nM.

Molecule `Cc1cccc(CN2CCc3c(cc(Cn4ccnc4C)cc3-c3cn(C)nc3C(F)(F)F)C2=O)c1` [Example 209, 7-((2-Methyl-1H-imidazol-1-yl)methyl)-5-(1-methyl-3-(trifluoromethyl)-1H-pyrazol-4-yl)-2-(3-methylbenzyl)-3,4-dihydroisoquinolin-1(2H)-one] has a GI50 (Homo sapiens, MV4-11, 120 h) of 85 nM.

With `CCc1cccc(CN2CCc3c(cc(Cn4ccnc4C)cc3-c3cn(C)nc3C(F)(F)F)C2=O)c1` [Example 210, 2-(3-Ethylbenzyl)-7-((2-methyl-1H-imidazol-1-yl)methyl)-5-(1-methyl-3-(trifluoromethyl)-1H-pyrazol-4-yl)-3,4-dihydroisoquinolin-1(2H)-one] the GI50 (Homo sapiens, MV4-11, 120 h) was 148 nM.

For `COc1ccnc([C@H](C2CC2)N2CCc3c(cc(Cn4ccnc4)cc3-c3cn(C)nc3C)C2=O)c1` [Example 211, (S)-7-((1H-Imidazol-1-yl)methyl)-2-(cyclopropyl(4-methoxypyridin-2-yl)methyl)-5-(1,3-dimethyl-1H-pyrazol-4-yl)-3,4-dihydroisoquinolin-1(2H)-one], the GI50 (Homo sapiens, MV4-11, 120 h) was 84 nM.

`CCn1cc(-c2cc(Cn3ccnc3)cc3c2CCN([C@H](c2cc(OC)ccn2)C2CC2)C3=O)c(C(F)(F)F)n1` [Example 212, (S)-7-((1H-Imidazol-1-yl)methyl)-2-(cyclopropyl(4-methoxypyridin-2-yl)methyl)-5-(1-ethyl-3-(trifluoromethyl)-1H-pyrazol-4-yl)-3,4-dihydroisoquinolin-1(2H)-one] was tested, and the GI50 (Homo sapiens, MV4-11, 120 h) was < 50 nM.

— patent US11999716B2, “WDR5 inhibitors and modulators” (priority 2018, dated 2024)
